In paper PMC4878759 (PLoS ONE, 2016):

Key:
CaCCs in NHNE cells = target: T1, CaCCs in NHNE cells (Homo sapiens, UniProt Q5XXA6); assay: Short-circuit current of CaCC in IL-4 treated NHNE cells; format: cell-based; settings: 100 μM
T1 sequence (Q5XXA6 1-986): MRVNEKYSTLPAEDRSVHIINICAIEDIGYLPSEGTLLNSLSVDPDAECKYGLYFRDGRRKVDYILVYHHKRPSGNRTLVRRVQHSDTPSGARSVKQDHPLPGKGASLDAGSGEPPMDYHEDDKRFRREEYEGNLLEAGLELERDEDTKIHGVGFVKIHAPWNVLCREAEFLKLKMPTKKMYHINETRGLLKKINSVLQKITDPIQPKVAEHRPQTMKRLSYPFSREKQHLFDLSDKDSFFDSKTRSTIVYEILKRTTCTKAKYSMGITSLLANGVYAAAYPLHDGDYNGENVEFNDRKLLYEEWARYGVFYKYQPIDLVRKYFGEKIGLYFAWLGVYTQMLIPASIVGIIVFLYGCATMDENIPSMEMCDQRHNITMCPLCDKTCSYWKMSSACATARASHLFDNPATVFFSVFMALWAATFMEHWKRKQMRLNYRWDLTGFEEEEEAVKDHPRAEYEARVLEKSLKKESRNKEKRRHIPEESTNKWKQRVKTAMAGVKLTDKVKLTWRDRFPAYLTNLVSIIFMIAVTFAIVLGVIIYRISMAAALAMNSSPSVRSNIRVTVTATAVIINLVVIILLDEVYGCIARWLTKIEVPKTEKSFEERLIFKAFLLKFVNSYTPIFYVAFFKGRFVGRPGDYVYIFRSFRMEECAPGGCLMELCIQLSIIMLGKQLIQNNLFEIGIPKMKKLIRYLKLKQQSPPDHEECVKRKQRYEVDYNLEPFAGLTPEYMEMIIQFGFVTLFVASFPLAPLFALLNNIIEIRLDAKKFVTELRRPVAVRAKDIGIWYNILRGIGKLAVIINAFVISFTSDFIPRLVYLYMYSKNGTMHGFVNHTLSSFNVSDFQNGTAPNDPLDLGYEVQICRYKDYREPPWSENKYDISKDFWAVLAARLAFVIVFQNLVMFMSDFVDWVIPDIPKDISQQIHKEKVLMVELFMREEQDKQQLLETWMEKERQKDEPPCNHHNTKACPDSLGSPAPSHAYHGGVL
Protocol: Snapwell inserts containing ANO1, ANO2 or CFTR expressing FRT cells, ENaC expressing T-84 cells or the human primary airway epithelial cells were mounted in Ussing chambers (Physiologic Instruments, San Diego, CA). To induce transcriptional ENaC induction, the polarized T84 cells were incubated with 2 mM sodium butyrate for 2 days. To increase the functional expression of ANO1, the human airway epithelial cells were treated with IL-4 (10 ng/mL) for 2 days. For T-84 and the human primary airway epithelial cells, the apical and basolateral bath were filled with HCO3^—buffered solution containing (in mM): 120 NaCl, 5 KCl, 1 MgCl2, 1 CaCl2, 10 D-glucose, 2.5 HEPES, and 25 NaHCO3 (pH 7.4). For FRT cells, the basolateral bath was filled with the HCO3^—buffered solution and the apical bath was filled with a half-Cl^- solution. In the half-Cl^- solution 65 mM NaCl in the HCO3^—buffered solution was replaced by Na-gluconate. […] ATP was applied to the apical bath solution to induce intracellular calcium increase. […] Apical membrane currents were measured with an EVC4000 Multi-Channel V/I Clamp (World Precision Instruments, Sarasota, FL) and PowerLab 4/35 (AD Instruments, Castle Hill, Australia). Data were analyzed using Labchart Pro 7 (AD Instruments). The sampling rate was 4 Hz. […]

ANO1 [1] = target: T2, ANO1 (Homo sapiens, UniProt Q5XXA6, DEL476-501); assay: Apical membrane current in ANO1 expressing FRT cells; format: cell-based; settings: 100 μM ATP
T2 construct: expressed in transfected cells
T2 sequence (Q5XXA6 with tags, fused parts or gaps isoform Q5XXA6-5 DEL539-564): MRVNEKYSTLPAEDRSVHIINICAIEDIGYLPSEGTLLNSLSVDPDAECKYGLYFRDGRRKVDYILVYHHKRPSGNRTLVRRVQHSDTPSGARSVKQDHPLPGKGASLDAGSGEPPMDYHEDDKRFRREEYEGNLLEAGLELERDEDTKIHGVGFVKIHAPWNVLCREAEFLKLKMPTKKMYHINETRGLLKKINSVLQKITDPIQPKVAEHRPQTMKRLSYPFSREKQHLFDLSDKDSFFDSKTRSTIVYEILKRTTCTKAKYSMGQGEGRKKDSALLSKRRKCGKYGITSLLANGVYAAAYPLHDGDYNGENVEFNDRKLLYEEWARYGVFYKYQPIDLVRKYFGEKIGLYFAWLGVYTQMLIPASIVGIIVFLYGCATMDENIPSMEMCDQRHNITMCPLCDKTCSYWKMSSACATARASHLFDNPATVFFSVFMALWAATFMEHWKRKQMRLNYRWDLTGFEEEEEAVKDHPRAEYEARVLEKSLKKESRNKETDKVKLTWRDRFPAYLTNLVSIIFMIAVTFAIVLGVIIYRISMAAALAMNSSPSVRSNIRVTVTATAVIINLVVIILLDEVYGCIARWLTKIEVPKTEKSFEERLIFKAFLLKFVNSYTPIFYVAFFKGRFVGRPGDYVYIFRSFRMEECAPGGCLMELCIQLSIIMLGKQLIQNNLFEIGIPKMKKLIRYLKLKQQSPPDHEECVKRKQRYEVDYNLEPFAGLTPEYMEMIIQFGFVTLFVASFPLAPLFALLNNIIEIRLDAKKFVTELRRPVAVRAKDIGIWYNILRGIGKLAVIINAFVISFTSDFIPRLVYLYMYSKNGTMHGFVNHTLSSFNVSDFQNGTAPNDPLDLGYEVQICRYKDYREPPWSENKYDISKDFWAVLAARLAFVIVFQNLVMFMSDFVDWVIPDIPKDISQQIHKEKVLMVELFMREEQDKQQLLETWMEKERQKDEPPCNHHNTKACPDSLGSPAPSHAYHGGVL
Protocol: (§1) Snapwell inserts containing ANO1, ANO2 or CFTR expressing FRT cells, ENaC expressing T-84 cells or the human primary airway epithelial cells were mounted in Ussing chambers (Physiologic Instruments, San Diego, CA). To induce transcriptional ENaC induction, the polarized T84 cells were incubated with 2 mM sodium butyrate for 2 days. To increase the functional expression of ANO1, the human airway epithelial cells were treated with IL-4 (10 ng/mL) for 2 days. For T-84 and the human primary airway epithelial cells, the apical and basolateral bath were filled with HCO3^—buffered solution containing (in mM): 120 NaCl, 5 KCl, 1 MgCl2, 1 CaCl2, 10 D-glucose, 2.5 HEPES, and 25 NaHCO3 (pH 7.4). For FRT cells, the basolateral bath was filled with the HCO3^—buffered solution and the apical bath was filled with a half-Cl^- solution. In the half-Cl^- solution 65 mM NaCl in the HCO3^—buffered solution was replaced by Na-gluconate. […] ATP was applied to the apical bath solution to induce intracellular calcium increase. […] Apical membrane currents were measured with an EVC4000 Multi-Channel V/I Clamp (World Precision Instruments, Sarasota, FL) and PowerLab 4/35 (AD Instruments, Castle Hill, Australia). Data were analyzed using Labchart Pro 7 (AD Instruments). The sampling rate was 4 Hz.

mouse ANO2 = target: T3, mouse ANO2 (Mus musculus, UniProt Q8CFW1); assay: YFP quenching assay in FRT cells expressing ANO2; format: cell-based; settings: dose dependent, 100 μM ATP
T3 sequence (Q8CFW1 1-1002): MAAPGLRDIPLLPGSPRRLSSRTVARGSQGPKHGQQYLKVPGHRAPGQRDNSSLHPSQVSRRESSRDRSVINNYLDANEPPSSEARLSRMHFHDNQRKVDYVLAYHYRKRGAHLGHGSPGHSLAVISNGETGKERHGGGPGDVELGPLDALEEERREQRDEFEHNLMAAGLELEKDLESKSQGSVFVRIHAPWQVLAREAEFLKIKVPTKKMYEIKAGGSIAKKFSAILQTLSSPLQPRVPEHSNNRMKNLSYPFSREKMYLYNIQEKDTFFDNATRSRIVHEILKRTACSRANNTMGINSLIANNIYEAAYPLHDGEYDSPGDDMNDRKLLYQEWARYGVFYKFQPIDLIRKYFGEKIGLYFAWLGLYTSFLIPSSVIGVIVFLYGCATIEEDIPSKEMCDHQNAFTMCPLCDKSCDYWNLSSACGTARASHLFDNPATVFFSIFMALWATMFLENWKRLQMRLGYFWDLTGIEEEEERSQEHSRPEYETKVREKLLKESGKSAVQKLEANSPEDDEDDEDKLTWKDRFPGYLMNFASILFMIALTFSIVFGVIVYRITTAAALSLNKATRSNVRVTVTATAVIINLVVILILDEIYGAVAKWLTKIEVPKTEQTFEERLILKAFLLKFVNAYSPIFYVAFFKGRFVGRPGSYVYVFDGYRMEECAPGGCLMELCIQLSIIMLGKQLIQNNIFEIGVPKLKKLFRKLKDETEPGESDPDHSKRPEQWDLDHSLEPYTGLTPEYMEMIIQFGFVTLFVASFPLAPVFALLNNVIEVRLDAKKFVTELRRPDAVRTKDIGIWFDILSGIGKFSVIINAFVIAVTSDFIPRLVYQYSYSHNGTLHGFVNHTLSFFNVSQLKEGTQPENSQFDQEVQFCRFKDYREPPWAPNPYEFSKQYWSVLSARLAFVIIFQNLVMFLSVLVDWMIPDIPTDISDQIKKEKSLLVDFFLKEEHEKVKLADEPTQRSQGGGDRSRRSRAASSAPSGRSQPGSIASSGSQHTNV

ANO1 [2] = system: ANO1; set-up: method as in PMID 25739000; settings: spontaneously hypertensive rats (SHRs) ref [8]; cited from earlier work
ANO1 [3] = system: ANO1; set-up: method as in PMID 25848051; settings: mice ref [14]; cited from earlier work
VRAC [4] = assay: VRAC activity by YFP quenching in LN215 cells; format: cell-based, human; settings: 10 μM
Protocol: LN215 cells, a human glioma cell line, were stably transfected with YFP-F46L/H148Q/I152L, a halide sensor YFP. After the cells were incubated on 96well black plates (Corning Inc., Corning, NY) for 48 hours, each well of the 96-well plate was washed 3 times in PBS (200 μL/wash), and the wells were filled with 50 μl/well isotonic solution (in mM): 140 NaCl, 5 KCl, 20 HEPES (310 mOsm/kg; pH 7.4 with NaOH). In each well, VRAC expressed on the cells were stimulated with addition of 50 μl of hypotonic solutions (in mM): 5 KCl, 20 HEPES, 90 mannitol (120 mOsm/kg). Test compounds (1 μL) were added to each well in a dose dependent manner. After 5 min, 96-well plates were transferred to a plate reader for fluorescence assay. Each well was assayed individually for VRAC-mediated I^- influx by recording fluorescence continuously (400 ms per point) for 7.6 s. YFP fluorescence was recorded 0.4 s for baseline, then 100 μL of 140 mM I^- solution was added at 0.4 s to see the change in fluorescence. Initial iodide influx rate was determined from the initial slope of fluorescence decrease, by nonlinear regression, following infusion of iodide.

VRAC [5] = system: VRAC; set-up: method as in PMID 24965069, PMID 25163766, PMID 26438191; settings: ref [26]–[28]; cited from earlier work
ANO2 = target: T4, ANO2 (Mus musculus, UniProt Q8CFW1); assay: Apical membrane current in FRT-ANO2 cells; format: cell-based; settings: 10 μM pretreatment
T4 sequence (Q8CFW1 1-1002): T3 sequence (Q8CFW1 1-1002)
Protocol: as §1
ANO1 belongs to anoctamin gene family which contains ten members presenting eight-pass transmembrane segments with cytosolic N- and C-terminals. ANO2 shares a high level of amino acid homology to ANO1 (~60%) and, ANO1 and ANO2 are confirmed CaCCs. However, the roles of other family members (ANO3-ANO10) remain poorly understood and controversial. […] We investigated the effect of these inhibitors on ANO2-mediated apical membrane current in FRT-ANO2 cells.

Compound	effect on remaining CaCCs currents (CaCCs in NHNE cells)	inhibition of ATP-induced ANO1 current (ANO1 [1]; 10 μM pretreatment)	IC50 (ANO1 [1]; apical membrane current, 20 min pretreatment, read-out: IC50 of ATP-induced ANO1 activation)	effect on ANO2 activity (mouse ANO2)	effect on BP (ANO1 [2])	effect on capsaicin-evoked pain-related behaviors (ANO1 [3])	inhibition of VRAC activity (VRAC [4])	block of VRAC activity (VRAC [5])	effect on ATP-induced ANO2 current (ANO2)
tannic acid	abolished	–	–	–	–	–	–	–	–
CCc1c(C)nc(SCC(=O)Nc2nc(-c3ccc(OC)cc3)cs2)[nH]c1=O [Ani T16Ainh-A01]	–	almost complete inhibition	1390 ± 590 nM	potently blocked	significantly reduced	significantly reduced	71.2 ± 1.6%	potently blocked	strongly blocked
